4 molecules from ChEMBL document CHEMBL1135216, “New 2-(1-adamantylcarbonyl)pyridine and 1-acetyladamantane thiosemicarbazones-thiocarbonohydrazones: cell growth inhibitory, antiviral and antimicrobial activity evaluation” (Bioorg Med Chem Lett, 2002) can be followed below.

Common to all, as to assay type: functional
The subject of assay [1] is Vero. In words: Tested for cytotoxic activity in African green monkey kidney cells (Vero). The following applies: Chlorocebus sabaeus.
Assay [2] relates to HEL. In words: Tested for antiviral activity against thymidine kinase deficient Varicella zoster virus in human embryonic lung fibroblasts.
Assay [3] concerns Vero. In words: Tested for antiviral activity against Punta toro virus in African green monkey kidney cell (Vero). The conditions noted are these: Chlorocebus sabaeus.
Assay [4] has as its system HeLa. As to the kind of experiment: Tested for cytotoxic activity in human epithelial cell line (HeLa).
Assay [5] has as its system E6SM. In words: Tested for antiviral activity against VSV-virus in human embryonic skin muscle fibroblasts. The following applies: Muscle tissue.
Assay [6] deals with E6SM. As to the kind of experiment: Tested for antiviral activity against herpes simplex virus type 1(KOS) in E6SM cell line(human embryonic skin-muscle fibroblasts).
Assay [7] deals with Vero. As to the kind of experiment: Tested for antiviral activity against Sindbis virus in African green monkey kidney cell (Vero). The following applies: Chlorocebus sabaeus.
Assay [8] has as its system HeLa. As to the kind of experiment: Tested for antiviral activity against coxsackie-B4 virus in human epithelial cell line.
Assay [9] concerns E6SM. As to the kind of experiment: Tested for antiviral activity against vaccinia virus in human embryonic skin muscle fibroblast. The following applies: Muscle tissue.
The subject of assay [10] is Vero. In words: Tested for antiviral activity against coxsackie B-4 virus in African green monkey kidney cell (Vero). The following applies: Chlorocebus sabaeus.
The test system of assay [11] is HeLa. In words: The compound was tested for antiviral activity against VSV-virus in human epithelial cells.
In assay [12] the test system is HEL. As to the kind of experiment: Tested for antiviral activity against thymidine kinase wild type Varicella zoster virus in human embryonic lung fibroblast.
In assay [13] the test system is Vero. As to the kind of experiment: Tested for antiviral activity against parainfluenza virus in african green monkey kidney cell (Vero). The following applies: Chlorocebus sabaeus.
For assay [14], the system named is E6SM. In words: Tested for cytotoxic activity in human embryonic skin muscle fibroblast (E6SM). The conditions noted are these: Muscle tissue.
Assay [15] deals with Vero. As to the kind of experiment: Tested for antiviral activity against Reo-1 virus in African green monkey kidney cell (Vero). The following applies: Chlorocebus sabaeus.
Assay [16] concerns E6SM. As to the kind of experiment: The compound was tested for antiviral activity against thymidine kinase-deficient (TK-HSV-1)virus in E6SM cell line(human embryonic skin-muscle fibroblasts).
Assay [17] deals with HEL. As to the kind of experiment: Tested for cytotoxic activity in human embryonic lung fibroblast (HEL).
In assay [18] the test system is E6SM. As to the kind of experiment: Tested for antiviral activity against thymidine kinase-deficient (TK-HSV-2G) virus in E6SM cell line(human embryonic skin-muscle fibroblasts).
Assay [19] concerns HEL. In words: Tested for antiviral activity against human cytomegalovirus (AD-169) in human embryonic lung fibroblasts.
The test system of assay [20] is HL-60. In words: Tested for the concentration required to reduce the viability of leukemia cells by 50% against cell growth of HL60 acute myeloid leukemia using MTT assay. The following applies: Homo sapiens, read-out: LC50 (the source's name). (Tetrazolium dyes change colour on reduction, which living cells bring about.)
Assay [21] relates to K562. As to the kind of experiment: Tested for the inhibitory concentration against cell growth of K562 chronic myeloid leukemia using MTT assay. The conditions noted are these: Homo sapiens.
The test system of assay [22] is MOLT-4. In words: Tested for the inhibitory concentration against cell growth of human leukemic cell line MOLT-4.
Assay [23] deals with MOLT-4. In words: Tested for the inhibitory concentration against cell growth of Tcell leukemic cell line MOLT-4 using MTT assay. The conditions noted are these: Homo sapiens.
The subject of assay [24] is CCRF-CEM. In words: Tested for the inhibitory concentration against cell growth of human leukemic cell line CCRF-CEM.
The subject of assay [25] is CCRF-CEM. As to the kind of experiment: Tested for the inhibitory concentration against cell growth of Tcell leukemic cell line CCRF-CEM using MTT assay. The following applies: Homo sapiens.
For assay [26], the system named is HL-60. As to the kind of experiment: Tested for the inhibitory concentration against cell growth of human leukemic cell line HL60.
For assay [27], the system named is RPMI-8226. In words: Tested for the inhibitory concentration against cell growth of human leukemic cell line RPMI8226.
Assay [28] concerns RPMI-8226. In words: Tested for the inhibitory concentration against cell growth of […] multiple myeloma using MTT assay. The conditions noted are these: Homo sapiens.
The subject of assay [29] is HL-60. In words: Tested for the inhibitory concentration against cell growth of HL60 acute myeloid leukemia using MTT assay. The conditions noted are these: Homo sapiens.
Assay [30] relates to CCRF-CEM. In words: Tested for the concentration required to reduce the viability of leukemia cells by 50% against cell growth of T cell leukemia cell line CCRF-CEM using MTT assay. The conditions noted are these: Homo sapiens, read-out: LC50 (the source's name).
For assay [31], the system named is HuT78. As to the kind of experiment: Tested for the inhibitory concentration against cell growth of human leukemic cell line HuT78.
The subject of assay [32] is MOLT-4. In words: Tested for the concentration required to reduce the viability of leukemia cells by 50% against cell growth of T cell leukemia cell line MOLT-4 using MTT assay. The following applies: Homo sapiens, read-out: LC50 (the source's name).
For assay [33], the system named is K562. In words: Tested for the inhibitory concentration against cell growth of human leukemic cell line K562.
Assay [34] deals with RPMI-8226. As to the kind of experiment: Tested for the concentration required to reduce the viability of leukemia cells by 50% against cell growth of RPMI8226 multiple myeloma using MTT assay. The following applies: Homo sapiens, read-out: LC50 (the source's name).
Assay [35] concerns HuT78. In words: Tested for the inhibitory concentration against cell growth of HuT78 T lymphoma using MTT assay. The conditions noted are these: Homo sapiens.
Assay [36] deals with HuT78. As to the kind of experiment: Tested for the concentration required to reduce the viability of leukemia cells by 50% against cell growth of HuT78 T lymphoma using MTT assay. The conditions noted are these: Homo sapiens, read-out: LC50 (the source's name).
The subject of assay [37] is K562. As to the kind of experiment: Tested for the concentration required to reduce the viability of leukemia cells by 50% against cell growth of K562 chronic myeloid leukemia using MTT assay. The conditions noted are these: Homo sapiens, read-out: LC50 (the source's name).

SMILES strings stand for the structures. In brackets after ≈: the same amount, converted by molar mass.

Take `O=c1[nH]c(=O)n([C@H]2C[C@H](O)[C@@H](CO)O2)cc1/C=C/Br` [BRIVUDINE]: the MCC in the assay on Vero [1] was over 400 µg/mL; in the assay on HeLa [4] it was over 400 µg/mL; in the assay on E6SM [14], over 400 µg/mL; with HEL [17], over 50 µg/mL. In addition, the MIC against HEL [2] was over 50 µg/mL; against Vero [3], over 400 µg/mL; with E6SM [5], over 400 µg/mL; against E6SM [6], 0.05 µg/mL (≈ 0.15 µM); in the assay on Vero [7], over 400 µg/mL; in the assay with HeLa [8], over 400 µg/mL. The MIC is 3.2 µg/mL (≈ 9.61 µM) in the assay with E6SM [9]; over 400 µg/mL in the assay with Vero [10]; over 400 µg/mL against HeLa [11]; 0.009 µg/mL (≈ 0.027 µM) in the assay on HEL [12]; over 400 µg/mL in the assay on Vero [13]; over 400 µg/mL against Vero [15]. Moreover, the MIC was determined as 400 µg/mL (≈ 1200 µM) in the assay on E6SM [16] and 80 µg/mL (≈ 240 µM) in the assay with E6SM [18].
`Nc1ccn(C[C@@H](CO)OCP(=O)(O)O)c(=O)n1.O.O` [CIDOFOVIR] came in with an MCC in the assay on HEL [17] of over 50 µg/mL. Further, the MIC in the assay with HEL [19] came out at 0.27 µg/mL.
For `Nc1nc2c(ncn2COC(CO)CO)c(=O)[nH]1` [GANCICLOVIR], the MIC is 9.6 µg/mL (≈ 37.6 µM) in the assay on E6SM [5]; 0.0064 µg/mL (≈ 0.0251 µM) in the assay with E6SM [6]; over 100 µg/mL with E6SM [9]; 9.6 µg/mL (≈ 37.6 µM) against E6SM [16]; 2 µg/mL (≈ 7.84 µM) in the assay with HEL [19]; 0.019 µg/mL (≈ 0.0744 µM) with E6SM [18]. Also, the MCC with E6SM [14] is over 100 µg/mL; in the assay with HEL [17], over 50 µg/mL.
As for `CC[C@]1(O)C[C@@H]2CN(CCc3c([nH]c4ccccc34)[C@@](C(=O)OC)(c3cc4c(cc3OC)N(C)[C@H]3[C@@](O)(C(=O)OC)[C@H](OC(C)=O)[C@]5(CC)C=CCN6CC[C@]43[C@@H]65)C2)C1` [VINBLASTINE], the CC50 was 1.51 nM in the assay with HL-60 [20]; 5.73 nM in the assay with CCRF-CEM [30]; under 0.25 nM in the assay with MOLT-4 [32]; 3.28 nM with RPMI-8226 [34]; 0.25 nM in the assay on HuT78 [36]; under 0.25 nM with K562 [37]. For the same molecule, the TGI is under 0.25 nM with K562 [21]; under 0.25 nM with MOLT-4 [23]; 1.91 nM with CCRF-CEM [25]; 0.8 nM in the assay with RPMI-8226 [28]; 0.25 nM with HL-60 [29]; under 0.25 nM with HuT78 [35]. In addition, the 50% growth inhibitory concentration (GI50) with MOLT-4 [22] was under 0.25 nM; in the assay on CCRF-CEM [24] it was 0.02 nM; in the assay on HL-60 [26], 0.036 nM; with RPMI-8226 [27], 0.003 nM; in the assay with HuT78 [31] it was under 0.25 nM; with K562 [33], under 0.25 nM.

For orientation: TGI means the concentration at which net growth stops. What is called GI50 is the concentration that inhibits growth by half.
